Laboratory results: patent US8975234B2, “Anti-bacterial infection, inflammation, and leukemia composition and use thereof” (priority 2011, dated 2015)

How the values were obtained:
[1] = tested on: K-562 cells; experiment: ROS test (DCF-DA); type: cell-based, human; conditions: 40 μM; 2 hours
Protocol: A radical specific fluorescent dye, 2′,7′-dichlorofluorescein (DCF-DA) was used to detect H2O2/NO-based radicals or O2— in cells respectively.
A total of 3 mL cell solution at the concentration of 1×10^6 K-562 cells per mL was cultured with 6 cm cell culture plates in an incubator supplied with 5% CO2 at 37° C. for 30 minutes so that cells could adapt to the environment. Tellimagrandin II solutions of different concentrations were added by order so that the final concentrations are 0, 30, 40 and 50 μM respectively. The solution was placed in incubator with 5% CO2 at 37° C. for 2 hours before being centrifuged at 3,500 rpm at 4° C. for 5 minutes and then being rinsed by PBS once. 2′,7′-dichlorofluorescein (DCF-DA) was added before the solution was put into dark incubator for 45 minutes and then rinsed by PBS once again. Finally, 1 mL PBS was used to resuspend the cells before BD FACScan was used to detect the fluorescent signal.

[2] = tested on: human erythromyeloblastoid leukemia K-562 cell; experiment: Cell viability WST-1 assay; type: cell-based
Protocol: Quantitative cell viability assessed using WST-1 assay. WST-1 is a reagent which produces a highly water soluble formazan upon metabolically active cells, allowing a direct colorimetric measurement of cell viability.
The K-562 cells were plated in a 96-well culture plate at a seeding density of 6,000 cells/well (100 μL) and incubated at 37° C. with 5% CO2 for 16˜18 hours. Cells were treated with 20 μL Tellimagrandin II to make the final concentrations of 0, 20, 40, 60 and 80 μM, and incubated at 37° C. with 5% CO2 for 24 and 48 hours. Cells without Tellimagrandin II treatment used as a control. Added 12 μL of WST-1 reagent (10:1) to each well of the plate and mixed well, then incubated at 37° C. in a 5% CO2 incubator for 2 hours. After incubation, the absorbance at 450 nm (test wavelength) and 630 nm (reference wavelength) were measured. Data was calculated by subtracting the 630 nm background absorbance from the 450 nm measurement.

[3] = tested on: MSSA (Methicillin-susceptible Staphylococcus aureus); experiment: Minimum inhibitory concentration (broth microdilution) and FIC index; type: cell-based; conditions: Staphylococcus aureus, MSSA, read-out: Minimum inhibitory concentration
Protocol: A serial of twofold dilution of the tested antibiotics (oxacillin, erythromycin, ampicillin, kanamycin, levofoxacin, vancomycin and doxycycline) was perform by Broth microdilution method to a final concentration of 2-512 μg/mL. The bacterial overnight culture was collected and re-suspended in the Muller-Hilton (M-H) broth. An aliquot of cell suspension (OD600=0.1) was prepared. The bacterial suspensions were plated in 96-well plate and incubated with test antibiotics at 37° C. in a 5% CO2 incubator (Table 1 to Table 4).
The […], […] and antagonism between two drugs was evaluated by the following formula:
[formula] The criteria of fractional inhibitory concentration index: […]

[4] = tested on: K-562 cells; experiment: Cell cycle analyses by flow cytometry; type: cell-based, human; conditions: 0-50 μM
Protocol: K-562 cells were plated in 15 cm dish at a density of 5×10^5 cells/mL (15 mL) and incubated at 37° C. with 5% CO2 for 16˜18 hours. Cells were collected and centrifuged at 700 rpm for 3 minutes at room temperature, and resuspended in culture medium containing 0.04% fetal bovine serum and 8 mM L-glutamine. Then, cells were incubated at 37° C. with 5% CO2 for 16˜18 hours.
Collected above cells and plated in 3 cm dishes at an initial density of 5×10^5 cells/mL (3 mL). Cells were treated with Tellimagrandin II to final concentrations of 0, 10, 20, 30, 40 and 50 μM, and then incubated at 37° C. with 5% CO2 for 12 and 24 hours.
Cells were centrifuged at a speed of 700 rpm for 5 min at 4° C. and washed once with PBS. Cells were fixed by drop-wise addition of 70% ethanol into the cell suspension. After 16˜18 hours, the ethanol-suspended cells were centrifuged at a speed of […] for 5 minutes at 4° C. and the ethanol decanted thoroughly. Cells were resuspended in PBS containing RNase A (10 μg/mL) and 1% Triton X-100 and incubated at 37° C. in a 5% CO2 incubator for 30 minutes to 1 hour. For propidium iodide (PI) staining, cells were centrifuged at 3,500 rpm for 5 minutes at room temperature and resuspended in 600 μL PBS. 25 μL of PI (20 μg/mL) solution was added to the mixture and incubated at room temperature in the dark for 1 hour. […]

[5] = tested on: LPS-induced NO in RAW264.7 cells; experiment: NO production analysis (Griess reagent); type: cell-based, mouse; conditions: before or after LPS, 25 and 50 μM statistically significant
Protocol: Murine macrophage cells were plated in each well on a 12-well plate at a density of about 4×10^5 RAW264.7 cells/mL. After overnight incubation, cells were serum starved in DMEM medium containing 2% Fetal Bovine Serum (FBS) for 3 hours. […] Endogenous NO production, induced by LPS. Cells were treated with Tellimagrandin II at various concentrations (10, 25 and 50 μM) before and after being treated with LPS. For NO production analysis, culture supernatants were brought to 96-well plate and mixed with Griess reagent. Plates were incubated and then the absorbance was measured at 520 nm. Sodium nitrite (NaNO2) solution (0 M˜0.1 M, 8 points) prepared in DMEM was used to generate a standard curve. The nitrite concentrations of samples were determined by interpolation from the standard curve. […] FIG. 10 is framed by a an x-axis labeled the relative order in LPS or Tellimagrandin II treatment and concentrations, and y-axis labeled NO concentration. The control (LPS only) and test groups were compared using a t-test, *p<0.05 (significant) and #p<0.01 (highly significant).

`O=C(OC1O[C@@H]2COC(=O)c3cc(O)c(O)c(O)c3-c3c(cc(O)c(O)c3O)C(=O)O[C@H]2[C@H](OC(=O)c2cc(O)c(O)c(O)c2)[C@H]1OC(=O)c1cc(O)c(O)c(O)c1)c1cc(O)c(O)c(O)c1` (stereo partly drawn) [Tellimagrandin II] was tested, and the “ROS in K-562 cells” value [1] was “observed to increase”, the IC50 ([2]; K562, 24 hr) was 57 µM and the IC50 ([2]; K562, 48 hr) was 48.1 µM. The MIC [3] was 64 µg/mL, the “percentage of the sub-G1 and G2/M-phase cells” value [4] was “increased in Tellimagrandin II treatments dose-dependently” and the “production of LPS-induced NO” value [5] was “decreased the production of LPS-induced NO”.
